Assay results reported in patent publication US20130224151A1, “Use of FAAH Inhibitors for Treating Abdominal, Visceral and Pelvic Pain” (UNITED STATES OF AMERICA, priority 2010, published 2013).
“Also recorded” adds a separate entry of the source.

How the values were obtained:
Female Wistar rats = test: Partial restraint stress-induced hyperalgesia model; assay type: in vivo, rat; conditions: 3 mg/kg or 10 mg/kg SC one hour prior to 2 h PRS, CRD 15 minutes after PRS
Procedure: Female Wistar rats surgically prepared for electromyography as described in Example 1 were used to evaluate the effects of the FAAH inhibitors (a) compound A or (b) compound B, on colorectal sensitivity and compliance after a 2 hour partial restraint stress session.
Partial restraint stress (PRS), a relatively mild stress, was induced as previously described (Morteau et al. Dig. Dis. Sci. 1994: 39:1239-48; “Guanylate cyclase C-mediated antinociceptive effects of linaclotide in rodent models of visceral pain”, Eutamene H, Bradesi S, Larauche M, Theodorou V, Beaufrand C, Ohning G, Fioramonti J, Cohen M, Bryant A P, Kurtz C, Currie M G, Mayer E A, Bueno L, Neurogastroenterology and motility —2010 Volume: 22 p. 312-322; “Stress-induced changes in intestinal transit in the rat: a model for irritable bowel syndrome”, Williams C L, Villar R G, Peterson J M, Burks T F, Gastroenterology—1988 p. 611-21). Female rats were lightly anesthetized with diethyl ether and their shoulders, upper forelimbs and thoracic trunk were wrapped in a confining harness of paper tape to restrict, but not prevent body movements. Control sham-stress animals were anesthetized but not wrapped. […]
Rats were treated orally with compound A (30 mg/kg in DMSO/cremophor/isotonic saline (1:1:8 v:v:v), n=8), or vehicle only (DMSO/cremophor/isotonic saline (1:1:8 v:v:v), 1 mL, n=9) with or without 2 hour PRS sessions. The number of abdominal contractions was recorded by electromyography per 5-minute period (y axis) for each distension pressure of 0 mmHg, 15 mmHg, 30 mmHg, 45 mmHg and 60 mmHg (x axis); the ? symbols represent the results for the control+vehicle group (n=9); the symbols ? represent the results for the stress+vehicle group (n=9); the symbols ? represent the results for the stress+compound A group (n=8). Data are mean values with SEM.
Rats were treated orally with compound B (30 mg/kg in DMSO/cremophor/isotonic saline (1:1:8 v:v:v), n=9), or vehicle only (DMSO/cremophor/isotonic saline (1:1:8 v:v:v), 1 mL, n=9) with or without 2 hour PRS sessions. The number of abdominal contractions was recorded by electromyography per 5-minute period (y axis) for each distension pressure of 0 mmHg, 15 mmHg, 30 mmHg, 45 mmHg and 60 mmHg (x axis); the symbols ? represent the results for the control+vehicle group (n=9); the symbols ? represent the results for the stress+vehicle group (n=9); and the symbols ? represent the results for the stress+compound B group (n=9). Data are mean values with SEM.
The effect of FAAH inhibitor URB597 was tested at 3 mg/kg and 10 mg/kg in the PRS model of visceral hyperalgesia essentially as described in Examples 1 and 2. URB597 was formulated as a suspension in vehicle [DMSO/cremophor/isotonic saline (1:1:8 v:v:v)]. […]

[1] = system: Male Sprague Dawley (SD) rats; test: Cortagine-induced visceral hypersensitivity to colorectal distension; assay type: in vivo, rat
From the text: Male Sprague Dawley (SD) rats (250-275 g, Harlan Labs, Indianapolis, Ind.) were kept under standard conditions of humidity and temperature and a 12-hour light/dark cycle (lights on 6.00 a.m.). Animals were group housed and had access to food ad libitum. Prior to the start of studies, animals were acclimatized to handling and administration of treatments (oral syringe feeding and subcutaneous injection). At the end of the experiments, animals were sacrificed by CO2 gas inhalation followed by thoracotomy or isoflurane anesthesia followed by decapitation with appropriate approved animal protocols.
On the day of the experiments, rats were injected intraperitoneally (IP) with cortagine (10 μg/kg, 0.8 ml/kg in DMSO/cremophor/isotonic saline (1:1:8 v:v:v). Cortagine, a selective corticotropin releasing factor receptor 1 (CRF1) agonist, prepared as described previously (Rivier et al. J. Med. Chem. 2007: 50:1668-1674), was stored in a powder form at −80° C. and prepared in sterile water (12.5 μg/ml) immediately before use. This dose had previously been established to show a significant increase in defecation, induction of diarrhea and increase in colonic motility, permeability and visceral pain in rats. (Larauche et al. Am. J. Physiol. Gastrointest. Liver Physiol. 2009: 297:G215-G227)
FAAH inhibitor compounds URB597 [3′-(aminocarbonyl)biphenyl-3-yl cyclohexyl carbamate], compound A and compound B were formulated as suspensions in DMSO/cremophor/isotonic saline (1:1:8 v:v:v). The concentration of the respective dosing FAAH inhibitor compound suspensions were 6 mg/ml for 30 mg/kg dose of compound A or compound B; 2 mg/ml for the 10 mg/kg dose of compound B; and 1.5 mg/ml for the 3 mg/kg dose of URB597. Compound A, compound B or vehicle treatment was administered to rats by per os (PO) route at dose-volume of 5 ml/kg. URB597 treatment was administered to rats by subcutaneous (SC) route at dose volume of 2 ml/kg. The vehicle for the PO route was DMSO/cremophor/isotonic saline (1:1:8 v:v:v). Vehicle (PO), URB597 (SC), compound A and compound B (PO) were administered to non-fasted rats, restrained by hand. The regimen of administration of URB597, compound A and compound B involved one delivery (PO or SC) performed 120 min before IP injection of cortagine.
Visceral pain was assessed using a non-invasive pressure transducer system referred to as “sensor balloon” as previously described (Larauche et al. Am. J. Physiol. Gastrointest. Liver Physiol. 2009: 297:G215-G227; Ness et al. Brain Res. 1988: 450:153-169). Briefly, in adult non-fasted SD rats, a 4-5 cm “sensor balloon” lubricated with surgical lubricant (Surgilube, Fougera, Melville) was inserted intra-anally under brief isoflurane anesthesia. The “sensor balloon” was positioned such that its distal end was 1 cm proximal to the anal verge and secured in place by tapping the balloon catheter to the tail. Rats were placed individually in Boolman's cage and allowed to recover from anesthesia and habituation. The colorectal procedure was performed using the Distender Series Ilir dual barostat (G&J Electronics Inc, Toronto, Ontario). The CRD protocol consisted of 2 CRD at 60 mmHg to unfold the balloon followed by 2 sets of CRD at 10, 20, 40 and 60 mmHg, 20 s duration, 4-min inter-stimulus interval. The intra-luminal colonic pressure (ICP) was recorded for 20 s before, during and after termination of CRD. […]

[2] = 3 mg/kg SC 2 h before cortagine
[3] = 3 mg/kg SC 2 h before cortagine, n=11
[4] = 3 mg/kg SC 2 h before cortagine, normalized to baseline VMR at 60 mmHg

NC(=O)c1cccc(-c2cccc(OC(=O)NC3CCCCC3)c2)c1 [URB597, 3′-(aminocarbonyl) biphenyl-3-yl cyclohexyl carbamate, reference compound]
number of abdominal contractions (antihyperalgesic effect) in PRS model (Female Wistar rats): did not exhibit an antihyperalgesic effects | number of abdominal contractions (antihyperalgesic effect) in PRS model (Female Wistar rats; listed as URB-597): no differences in number of abdominal contractions were observed | % hypersensitive rats at 40 mmHg [1, 2]: 55% | rats with increased VMR over baseline between 0 and 50% at 60 mmHg [1, 2]: 18% | rats with increased VMR over baseline between 51 and 100% at 60 mmHg [1, 2]: 9% | rats with increased VMR over baseline over 101% at 60 mmHg [1, 2]: 9% | effect on cortagine-induced visceral hypersensitivity to CRD ([1]; 3 mg/kg SC 2 h before cortagine 10 μg/kg IP, 40 and 60 mmHg): abolished the visceral hypersensitivity; also recorded: prevented the visceral hypersensitivity | rats presenting a decrease in VMR compared to baseline at 60 mmHg [1, 3]: 64% | rats presenting an increased VMR over baseline (% hypersensitive rats) at 60 mmHg [1, 3]: 36% | VMR to CRD at 40 mmHg [1, 4]: 81.89±16.38% | VMR to CRD at 60 mmHg [1, 4]: 97.62±20.02% | VMR versus vehicle/cortagine rats at 60 mmHg CRD ([1]; second trial, URB597 3 mg/kg SC 2 h before cortagine IP, n=7, p<0.001): significant differences | antihyperalgesic effects in the cortagine model of visceral pain ([1]; summary statement referring to Example 3): did exhibit antihyperalgesic effects
